Measurements reported in ChEMBL document CHEMBL5375952, “Discovery of Novel 8-Hydroxyquinoline Derivatives with Potent In Vitro and In Vivo Antifungal Activity” (J Med Chem, 2023).

Tested on: Candida albicans
Assay: Antifungal activity against Candida albicans SC5314 infected in C57BL/6 mouse assessed as mean fungal burden at 2 mg/kg, ip measured after 46 hrs in presence of FLC by plate count method (reference value: 6.902 log10CFU/ml)
Type: functional

## CCN(CC)c1ccc(C(NC(=O)C(C)C)c2ccc3cccnc3c2O)cc1 (stereo unspecified)
  Activity: 5.244 log10CFU/ml
